The data set is described as follows: physchem. The conditions noted are these: 25 °C, organic solvent or mixture, thermodynamic from solid.

The text below walks through data of patent publication US10342774B2, “Topical pharmaceutical composition of acitretin” (priority 2013, dated 2019).

In brackets after ≈: the same amount, converted by molar mass.

As usually defined, the solubility is the dissolved amount per volume that the medium holds.

Experimental: The saturation solubility of acitretin was determined by adding an excess amount of acitretin in a conical flask containing a mixture of diethylene glycol monoethyl ether, dimethyl isosorbide, and polysorbate 80, present in a w/w ratio of 3.3:24.1:1. The mixture was kept in a shaking water bath for 24 hours at 25° C.

Consider `COc1cc(C)c(/C=C/C(C)=C/C=C/C(C)=C/C(=O)O)c(C)c1C` [acitretin, all-trans-9-(4-methoxy-2,3,6-trimethylphenyl)-3,7-dimethyl-2,4,6,8-nonatetraenoic acid], for which the solubility at 24 h is 2500 µg/mL (≈ 7.66 mM).
